What was measured:
[1] = tested on: Thioflavin S-positive aggregates; assay: Thioflavin S staining of hippocampal sections of hTau-KI mice after stereotactic injection; settings: hTau-KI mice, stereotactic, 72 hours
phosphorylated Tau = assay: Immunohistochemistry for phosphorylated Tau (AT8) in hTau-KI mice after stereotactic injection; settings: hTau-KI mice, stereotactic, 72 hours

C[C@@H]1C[C@@H]([C@H](O)CC2CC(=O)NC(=O)C2)C(=O)[C@@H](C)C1 [cycloheximide, reference compound]
ThioS+ staining, co-injection with iBEp vs iBEp alone [1]: complete return to baseline of ThioS+ staining
AT8 staining, co-injection with iBEp vs contralateral iBEp alone (phosphorylated Tau): completely eliminated AT8 staining

— patent US20250281564A1, “DYSREGULATION OF NEUROPROTEASOMES BY APOE ISOFORMS DRIVES ENDOGENOUS TAU AGGREGATION” (The Trustees of Columbia University in the City of New York, priority 2022, published 2025)
